In patent US8618152B2, “Inhibitors of serine proteases, particularly HCV NS3-NS4A proteases” (Vertex Pharmaceuticals Incorporated, priority 2003, dated 2013):
*1 amine or outer side, *2 acyl side, *3 side chain or, on linkers, in order; H or OH if unused. Where a SMILES comes first, the peptide text is derived from it. [ ]: non-standard residue; d: D form. The star is where a group is joined. ξ: configuration not given here. Pro(trans-3-iPr) = CC(C)[C@H]1CCN[C@@H]1C(=O)O; Pro(3S-Et) = CC[C@H]1CCN[C@@H]1C(=O)O; Phe(2-Me) = Cc1ccccc1C[C@H](N)C(=O)O; Pyrazinecarbonyl = O=C(c1cnccn1)*; X1 = CCCC(N[*:1])C(=O)C(=O)[*:2]; Ile(3ξ) = CCC(C)[C@H](N)C(=O)O; Chg = N[C@H](C(=O)O)C1CCCCC1

System: Cells containing hepatitis C virus (HCV) replicon
Assay: HCV replicon cell assay
Type: cell-based
Settings: 50% inhibition of HCV RNA level, 48-hour incubation, Taqman real-time RT-PCR, read-out: IC50
Description: HCV Replicon Cell Assay Protocol
Cells containing hepatitis C virus (HCV) replicon were maintained in DMEM containing 10% fetal bovine serum (FBS), 0.25 mg per ml of G418, with appropriate supplements (media A).
On day 1, replicon cell monolayer was treated with a trypsin:EDTA mixture, removed, and then media A was diluted into a final concentration of 100,000 cells per ml with. 10,000 cells in 100 ul were plated into each well of a 96-well tissue culture plate, and cultured overnight in a tissue culture incubator at 37° C.
On day 2, compounds (in 100% DMSO) were serially diluted into DMEM containing 2% FBS, 0.5% DMSO, with appropriate supplements (media B). The final concentration of DMSO was maintained at 0.5% throughout the dilution series.
Media on the replicon cell monolayer was removed, and then media B containing various concentrations of compounds was added. Media B without any compound was added to other wells as no compound controls.
Cells were incubated with compound or 0.5% DMSO in media B for 48 hours in a tissue culture incubator at 37° C. At the end of the 48-hour incubation, the media was removed, and the replicon cell monolayer was washed once with PBS and stored at −80° C. prior to RNA extraction.
Culture plates with treated replicon cell monolayers were thawed, and a fixed amount of another RNA virus, such as Bovine Viral Diarrhea Virus (BVDV) was added to cells in each well. RNA extraction reagents (such as reagents from RNeasy kits) were added to the cells immediately to avoid degradation of RNA. Total RNA was extracted according the instruction of manufacturer with modification to improve extraction efficiency and consistency. Finally, total cellular RNA, including HCV replicon RNA, was eluted and stored at −80° C. until further processing.
A Taqman real-time RT-PCR quantification assay was set up with two sets of specific primers and probe. One was for HCV and the other was for BVDV. Total RNA extractants from treated HCV replicon cells was added to the PCR reactions for quantification of both HCV and BVDV RNA in the same PCR well. Experimental failure was flagged and rejected based on the level of BVDV RNA in each well. The level of HCV RNA in each well was calculated according to a standard curve run in the same PCR plate. The percentage of inhibition or decrease of HCV RNA level due to compound treatment was calculated using the DMSO or no compound control as 0% of inhibition. The IC50 (concentration at which 50% inhibition of HCV RNA level is observed) was calculated from the titration curve of any given compound.

Row | Structure (SMILES) | IC50 [nM]
1 | CCC[C@H](NC(=O)[C@@H]1[C@@H](C2CCCCC2)CCN1C(=O)[C@@H](NC(=O)[C@@H](NC(=O)c1ccc[nH]1)C1CCCCC1)C(C)(C)C)C(=O)C(=O)NC1CC1 [Compound 72] | 500 to 1000
2 | CCC[C@H](NC(=O)[C@@H]1[C@@H](C2CCCCC2)CCN1C(=O)[C@@H](NC(=O)[C@@H](NC(=O)c1cc([N+](=O)[O-])c[nH]1)C1CCCCC1)C(C)(C)C)C(=O)C(=O)NC1CC1 [Compound 71] | > 1000
3 | CCCC(NC(=O)[C@@H]1[C@@H](CC)CCN1C(=O)[C@@H](NC(=O)[C@@H](NC(=O)c1cnccn1)C1CCCCC1)C(C)(C)C)C(=O)C(=O)N[C@@H](C)c1ccccc1 (some centres unmarked) [Compound 44] | 500 to 1000
4 | CCCC(NC(=O)[C@@H]1[C@@H](CC)CCN1C(=O)[C@@H](NC(=O)[C@@H](NC(=O)c1cnccn1)C(c1ccccc1)c1ccccc1)C(C)C)C(=O)C(=O)NC1CC1 (some centres unmarked) [Compound 60] | > 1000

Biological target: HCV NS3-NS4A protease (tNS3 with KK4A) (Hepatitis C virus genotype 1a, UniProt P27958)
Sequence (P27958 1027-1208): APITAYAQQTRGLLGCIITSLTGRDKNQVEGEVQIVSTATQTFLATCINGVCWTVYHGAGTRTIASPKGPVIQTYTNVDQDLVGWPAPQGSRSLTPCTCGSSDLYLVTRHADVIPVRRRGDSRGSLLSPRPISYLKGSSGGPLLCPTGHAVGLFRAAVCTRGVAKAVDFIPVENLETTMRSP
Assay: HCV Ki assay (HPLC microbore separation of 5AB substrate and products)
Type: biochemical
Settings: 25 nM tNS3, 25 μM KK4A, 25 μM 5AB substrate, 20 min at 30 C; read-out: Ki
Description: HPLC Microbore Method for Separation of 5AB Substrate and Products
Substrate: NH2-Glu-Asp-Val-Val-(alpha)Abu-Cys-Ser-Met-Ser-Tyr-COOH
A stock solution of 20 mM 5AB (or concentration of your choice) was made in DMSO w/0.2M DTT. This was stored in aliquots at −20 C.
Buffer: 50 mM HEPES, pH 7.8; 20% glycerol; 100 mM NaCl
Total assay volume was 100 μL
The buffer, KK4A, DTT, and tNS3 were combined; distributed 78 μL each into wells of 96 well plate. This was incubated at 30 C for ˜5-10 min.
2.5 μL of appropriate concentration of test compound was dissolved in DMSO (DMSO only for control) and added to each well. This was incubated at room temperature for 15 min.
Initiated reaction by addition of 20 μL of 250 μM 5AB substrate (25 μM concentration is equivalent or slightly lower than the Km for 5AB).
Incubated for 20 min at 30 C.
Terminated reaction by addition of 25 μL of 10% TFA
Transferred 120 μL aliquots to HPLC vials
Separated SMSY product from substrate and KK4A by the following method:
Microbore Separation Method:
Instrumentation: Agilent 1100
Column thermostated chamber G1316A
Diode array detector G1315A
Solvent A=HPLC grade water+0.1% TFA
Solvent B=HPLC grade acetonitrile+0.1% TFA
Stop time: 17 min Post-run time: 10 min.

Row | Structure (SMILES) | Ki [nM]
5 | CCCC(NC(=O)[C@@H]1C(CC)CCN1C(=O)[C@@H](NC(=O)[C@@H](NC(=O)c1cnccn1)C(C)C)C(C)C)C(=O)C(=O)N[C@@H](Cc1ccccc1)C(=O)O (some centres unmarked) [Compound 5] | < 100
6 | CCC[C@H](NC(=O)[C@@H]1[C@@H](C2CCCCC2)CCN1C(=O)[C@@H](NC(=O)[C@@H](NC(=O)c1ccc[nH]1)C1CCCCC1)C(C)(C)C)C(=O)C(=O)NC1CC1 [Compound 72] | < 100
7 | CCC[C@H](NC(=O)[C@@H]1[C@@H](C2CCCCC2)CCN1C(=O)[C@@H](NC(=O)[C@@H](NC(=O)c1cc([N+](=O)[O-])c[nH]1)C1CCCCC1)C(C)(C)C)C(=O)C(=O)NC1CC1 [Compound 71] | < 100
8 | CCCC(NC(=O)[C@@H]1[C@@H](CC)CCN1C(=O)[C@@H](NC(=O)[C@@H](NC(=O)c1cnccn1)C1CCCCC1)C(C)(C)C)C(=O)C(=O)N[C@@H](C)c1ccccc1 (some centres unmarked) [Compound 44] | 100 to 500
9 | CCCC(NC(=O)[C@@H]1[C@@H](CC)CCN1C(=O)[C@@H](NC(=O)[C@@H](NC(=O)c1cnccn1)C1CCCCC1)C(C)C)C(=O)C(=O)N[C@@H](Cc1ccccc1)C(=O)O (stereo partly drawn) [Compound 26] (Pyrazinecarbonyl-[Chg]V[Pro(3S-Et)][X1]F-OH) | < 100
10 | CCCC(NC(=O)[C@@H]1[C@@H](C(C)C)CCN1C(=O)[C@@H](NC(=O)[C@@H](NC(=O)c1cnccn1)C(C)C)C(C)C)C(=O)C(=O)N[C@@H](Cc1ccccc1)C(=O)O (stereo partly drawn) [Compound 16] (Pyrazinecarbonyl-VV[Pro(trans-3-iPr)][X1]F-OH) | 100 to 500
11 | CCCC(NC(=O)[C@@H]1[C@@H](CC)CCN1C(=O)[C@@H](NC(=O)[C@@H](NC(=O)c1cnccn1)C(C)C)[C@@H](C)OCC)C(=O)C(=O)N[C@@H](Cc1ccccc1)C(=O)O (stereo partly drawn) [Compound 36] (Pyrazinecarbonyl-VT(Et)[Pro(3S-Et)][X1]F-OH) | 100 to 500
12 | CCCC(NC(=O)[C@@H]1[C@@H](CC)CCN1C(=O)[C@@H](NC(=O)[C@@H](NC(=O)c1cnccn1)C(C)C)C1CCCCC1)C(=O)C(=O)N[C@@H](Cc1ccccc1)C(=O)O (stereo partly drawn) [Compound 32] (Pyrazinecarbonyl-V[Chg][Pro(3S-Et)][X1]F-OH) | 100 to 500
13 | CCCC(NC(=O)[C@@H]1[C@@H](CC2CC2)CCN1C(=O)[C@@H](NC(=O)[C@@H](NC(=O)c1cnccn1)C(C)C)C(C)C)C(=O)C(=O)N[C@@H](Cc1ccccc1)C(=O)O (some centres unmarked) [Compound 20] | 100 to 500
14 | CCCC(NC(=O)[C@@H]1[C@@H](CC)CCN1C(=O)[C@@H](NC(=O)[C@@H](NC(=O)c1cnccn1)C1CCCCC1)C1CCCCC1)C(=O)C(=O)NC1CC1 (some centres unmarked) [Compound 46] | 100 to 500
15 | CCCC(NC(=O)[C@@H]1[C@@H](CC)CCN1C(=O)[C@@H](NC(=O)[C@@H](NC(=O)c1cnccn1)C1CCCCC1)C(C)C)C(=O)C(=O)NC1CC1 (some centres unmarked) [Compound 45] | > 500
16 | CCCC(NC(=O)[C@@H]1[C@@H](CC)CCN1C(=O)[C@@H](NC(=O)[C@H](Cc1ccccc1C)NC(=O)c1cnccn1)C(C)C)C(=O)C(=O)N[C@@H](Cc1ccccc1)C(=O)O (stereo partly drawn) [Compound 27] (Pyrazinecarbonyl-[Phe(2-Me)]V[Pro(3S-Et)][X1]F-OH) | < 100
17 | CCCC(NC(=O)[C@@H]1[C@@H](CC)CCN1C(=O)[C@@H](NC(=O)[C@@H](NC(=O)c1cnccn1)C1CCCCC1)C(C)CC)C(=O)C(=O)N[C@@H](Cc1ccccc1)C(=O)O (stereo partly drawn) [Compound 29] (Pyrazinecarbonyl-[Chg][Ile(3ξ)][Pro(3S-Et)][X1]F-OH) | < 100
